According to EP2975030B1, “DIHYDROPYRIDAZINE-3,5-DIONE DERIVATIVE” (Chugai Seiyaku Kabushiki Kaisha, priority 2013, dated 2014):

test system: rat small-intestinal brush border membrane vesicles; assay: Inhibitory effect on 33PO4 uptake into rat small-intestinal brush border membrane vesicles (rapid filtration method); type: biochemical, Wistar female rat; conditions: 1 µM test compound; 33PO4 uptake into rat small-intestinal BBMVs, 60 seconds
Experimental: The ^33PO4 transport activity of the small-intestinal BBMVs was determined by the rapid filtration method. […] Then, ice-cold buffer C (110 mM NaCl, 1 mM KH2PO4, and 10 mM HEPES (pH 7.5)) was added to each reaction mixture, which was immediately suction-filtered through a Millipore filter. The filter was washed with buffer C, and each sample was then dissolved in a liquid scintillator. The amount of ^33PO4 uptake into BBMVs was measured using a liquid scintillation counter. […]

| SMILES | Rate of uptake inhibition (%) (1 µM) |
| --- | --- |
| C[C@]12CCCN1N(Cc1cccc(F)c1F)C(=O)C(C(=O)Nc1ccc(Cl)cc1-c1ccc(C(F)(F)F)nc1)=C2O [Example 86] | 83 |
| CN(C)S(=O)(=O)c1ccc(-c2nc(C(F)(F)F)ccc2NC(=O)C2=C(O)[C@@]3(C)CCCN3N(Cc3cccc(F)c3F)C2=O)cc1 [Example 87] | 84 |
| C[C@]12CCCN1N(Cc1cccc(F)c1F)C(=O)C(C(=O)Nc1ccc(C(F)(F)F)cc1)=C2O [Example 89] | 67 |
| C[C@]12CCCN1N(Cc1cccc(F)c1F)C(=O)C(C(=O)Nc1ccc(C(F)(F)F)cc1-c1ccc(C(F)(F)F)nc1)=C2O [Example 90] | 91 |
| C[C@]12CCCN1N(Cc1cccc(F)c1F)C(=O)C(C(=O)Nc1ccc(C(F)(F)F)cc1-c1cncc(C(F)(F)F)c1)=C2O [Example 91] | 87 |
| COCCOc1cc(NC(=O)C2=C(O)[C@@]3(C)CCCN3N(Cc3cccc(F)c3F)C2=O)c(-c2cccc(OC)c2OC)cc1C(F)(F)F [Example 92] | 81 |
| COc1cccc(-c2cc(C(F)(F)F)ccc2NC(=O)C2=C(O)[C@@]3(C)CCCN3N(Cc3cccc(F)c3F)C2=O)n1 [Example 93] | 56 |
| C[C@]12CCCN1N(Cc1cccc(F)c1F)C(=O)C(C(=O)Nc1ccc(C(F)(F)F)cc1-c1cnc(C#N)c([N+](=O)[O-])c1)=C2O [Example 99, (4aR)-N-[2-(6-Cyano-5-nitropyridin-3-yl)-4-(trifluoromethyl)phenyl]-1-[(2,3-difluorophenyl)methyl]-4-hydroxy-4a-methyl-2-oxo-6,7-dihydro-5H-pyrrolo[1,2-b]pyridazine-3-carboxamide] | 82 |
| C[C@]12CCCN1N(Cc1cccc(F)c1F)C(=O)C(C(=O)Nc1ccc(C(F)(F)F)cc1-c1cc(C#N)ncn1)=C2O [Example 100] | 69 |
| Cc1cc(-c2cc(C(F)(F)F)ccc2NC(=O)C2=C(O)[C@@]3(C)CCCN3N(Cc3cccc(F)c3F)C2=O)cnc1C#N [Example 101] | 57 |
| C[C@]12CCCN1N(Cc1ccc(OCCN3CCOCC3)c(F)c1F)C(=O)C(C(=O)Nc1ccc(Cl)cc1-c1ccc(C(F)(F)F)nc1)=C2O [Example 102] | 65 |
| CSc1ccc(-c2cc(C(F)(F)F)ccc2NC(=O)C2=C(O)[C@@]3(C)CCCN3N(Cc3ccc(OCCN4CCOCC4)c(F)c3F)C2=O)cn1 [Example 103] | 78 |
| CSc1ncc(-c2cc(C(F)(F)F)ccc2NC(=O)C2=C(O)[C@@]3(C)CCCN3N(Cc3ccc(OCCN4CCOCC4)c(F)c3F)C2=O)cn1 [Example 104] | 73 |
| CSc1ccc(-c2nc(C(F)(F)F)ccc2NC(=O)C2=C(O)[C@@]3(C)CCCN3N(Cc3cccc(F)c3F)C2=O)cn1 [Example 105] | 72 |
| C[C@]12CCCN1N(Cc1ccc(OCCN3CCOCC3)c(F)c1F)C(=O)C(C(=O)Nc1ccc(C(F)(F)F)nc1-c1cncc(C(F)(F)F)c1)=C2O [Example 106] | 79 |
| C[C@@]12CCCN1N(Cc1ccc(OCCN3CCOCC3)c(F)c1F)C(=O)C(C(=O)Nc1ccc(Cl)cc1-c1cc(C(F)(F)F)ncn1)=C2O.Cl [Example 107] | 54 |
| C[C@@]12CCCN1N(Cc1ccc(OCCN3CCOCC3)c(F)c1F)C(=O)C(C(=O)Nc1ccc(C(F)(F)F)cc1-c1cc(C(F)(F)F)ncn1)=C2O.Cl [Example 108] | 54 |
| Cc1ncc(-c2cc(C(F)(F)F)ccc2NC(=O)C2=C(O)[C@@]3(C)CCCN3N(Cc3cccc(F)c3F)C2=O)cc1C#N [Example 109, (4aR)-N-[2-(5-Cyano-6-methylpyridin-3-yl)-4-(trifluoromethyl)phenyl]-1-[(2,3-difluorophenyl)methyl]-4-hydroxy-4a-methyl-2-oxo-6,7-dihydro-5H-pyrrolo[1,2-b]pyridazine-3-carboxamide] | 52 |
